Data on one compound can be found in patent US20250108038A1 (priority 2023, published 2025).

The data set in a line: Plasma protein binding by equilibrium dialysis. The data set is classed as in vitro ADME, mouse. As to conditions: for % Recovery / % Unbound: mouse plasma. Here is the method:
Samples of spiked plasma and blank buffer (Dulbecco's phosphate-buffered saline, DPBS) and spiked brain homogenate and blank DPBS added to opposing sides of a dialysis membrane were collected from triplicate equilibrium dialysis chambers prior to (t=0) and following 1, 2, 4 and 6 hours of incubation at 37° C. […] The LC-MS/MS method(s) for analytes (Compound I-19, Compound A and Compound B) was cross-qualified for the analysis of the DPBS samples.
A secondary stock solution of 200 μM (74.2 ug/mL) will be prepared in DMSO. This secondary stock solution will then be diluted 100-fold to 2 μM ([…]) with male CD-1 mouse plasma and brain homogenate (1:2 v/v brain:Dulbecco's phosphate buffered saline, pH 7-7.2) or buffer (DPBS).
To 2.97 mL aliquots of thawed mouse plasma or brain homogenate warmed to 37° C., 30 ul aliquots of the secondary stock solution of the test compound will be added for final concentrations of 2 μM (0.742 ug/mL). An appropriate volume of warmed buffer (DPBS) will also be spiked with the test compound at a concentration of 2 μM ([…]). Triplicate aliquots (50 μL) of each spiked plasma, brain homogenate and buffer solution will be collected prior to dialysis into labeled 1.5 mL polypropylene tubes and then stored at approximately −80° C. until bioanalysis.
Equilibrium dialysis will be performed in a 96-well Teflon dialysis unit (HTDialysis, Gales Ferry, CT). Each well of the unit consists of two chambers separated by a vertically aligned dialysis membrane (regenerated cellulose) with a molecular weight cut-off of 12-14 KDa. The equilibrium dialysis membranes will first be presoaked in deionized water for 30 min, then soaked in 20% ethanol for 20 min, followed by rinsing twice with deionized water.
The equilibrium dialysis apparatus will be assembled according to the manufacturer's directions. One chamber of each well will be immediately filled with 150 μL of blank buffer (to prevent membrane dehydration). Aliquots (150 μL) of spiked plasma, spiked brain homogenate and spiked buffer will then be added to the opposing chamber in each well. Three wells per time point per matrix will be used. The top of the plate will be sealed with an adhesive sealing film to prevent evaporation and maintain constant pH during incubation.
The dialysis apparatus will be incubated at 37° C. in an orbital shaker/incubator (Lab-Line Enviro Shaker) set at 75 rpm.
Following 1, 2, 4 and 6 hours of incubation, samples from each plasma, brain homogenate and buffer compartment will be collected and the sample volume will be documented.

[1] abbreviates: dialysis time 1 h, 2 μM, 37° C.
Where [2] appears, read: dialysis time 2 h, 2 μM, 37° C.
Setting [3] is: dialysis time 4 h, 2 μM, 37° C.
Where [4] appears, read: dialysis time 6 h, 2 μM, 37° C.

As for `Clc1ccc(C2(OCC3OCCO3)c3ccccc3C3=NCCN32)cc1` (centres unmarked) [Compound I-19], the “% unbound in plasma” value (2 μM, 6 hours of dialysis, 37° C.) came out at 3.72±0.564%. Further, the “fraction unbound to plasma” value (2 μM, equilibrium dialysis) stood at 0.0372. Also, the “% recovery, plasma” value (6 hours of dialysis) worked out at 57.1±0.567%. Besides, the “% Recovery” value is, setting by setting: under setting [1], 87.9 ± 3.05%; under setting [2], 80.1 ± 2.93%; under setting [3], 67.6 ± 3.41%; under setting [4], 57.1 ± 0.567%. Besides, the “% Unbound” value reads like this: under setting [1], 1.43%; under setting [2], 1.91 ± 0.158%; under setting [3], 3.20 ± 0.700%; under setting [4], 3.72 ± 0.564%.
